Source: patent US9757427B2, “Combination comprising zidovudine and polymyxin” (HELPERBY THERAPEUTICS LIMITED, priority 2013, dated 2017)

What was measured:
[1] = tested on: log phase Escherichia coli and Klebsiella pneumoniae; experiment: chequerboard method, MIC alone and in combination, log phase bacteria; type: cell-based; conditions: for MIC before combination: single agent, chequerboard
Text: In relation to (b) above, methods for determining activity against log phase bacteria include a determination, under standard conditions (i.e. conditions known to those skilled in the art, such as those described in WO 2005014585, the disclosures of which document are hereby incorporated by reference), of Minimum Inhibitory Concentration (“MIC”) or Minimum Bactericidal Concentration (“MBC”) for a test compound. Specific examples of such methods are described below. In Vitro Activity of Zidovudine Combined Together with Colistin Against Log Phase Escherichia coli and Klebsiella pneumoniae Using Chequerboard Method

log phase Klebsiella = experiment: time kill curve against log phase Klebsiella; type: cell-based

Compound	MIC of HT0120663 in combination ([1]; combined with 2 μg/ml of colistin)	MIC before combination [1]	time kill outcome after 6 hours (log phase Klebsiella; HT0120663 at 4 μg/ml, after the 6 hour kill)	log kill (log phase Klebsiella; HT0120663 at 4 μg/ml, at 6 hours)	MIC of colistin in combination ([1]; combined with 2 μg/ml of HT0120663)	time kill outcome (log phase Klebsiella; Colistin at 16 μg/ml)
Cc1cn([C@H]2C[C@H](N=[N+]=[N-])[C@@H](CO)O2)c(=O)[nH]c1=O [HT0120663, Zidovudine]	1 µg/mL	4 µg/mL	regrowth of the bacteria	about 1 log	–	–
Colistin	–	4 µg/mL	–	–	0.25 µg/mL	inhibition up to 6 hours
